The record followed here is paper PMC10056443, “Derivatives of Amaryllidaceae Alkaloid Ambelline as Selective Inhibitors of Hepatic Stage of Plasmodium berghei Infection In Vitro” (Pharmaceutics, 2023).

Where two headings read alike, the source gives them in different places.

Data set [1] has as its system hepatic stage of P. berghei. In words: In vitro activity against P. berghei hepatic stages (luciferase-expressing sporozoites in Huh-7 cells, bioluminescence). Type of data set: cell-based, Plasmodium berghei. Further details: INFECTION (IC50 determination): unit not given here. The note with it: for activity at 1 µM / activity at 10 µM / IC50: Plasmodium berghei; for activity at 1 µM / activity at 10 µM: Huh-7, 48 h, read-out: INFECTION Ø screening; for activity at 1 µM / activity at 10 µM / INFECTION (IC50 determination): DMSO = 100. The procedure: Activity against the hepatic stage of P. berghei infection was assessed using the human hepatoma cell line Huh-7 (deposited at the Japanese Collection of Research Bioresources under JCRB0403). The protocol was previously comprehensively described by Prudêncio et al. and by Ploemen et al.. […] Cells were seeded in 96-well plates at a density of 1 × 10^4 cells per well in 100 µL of culture medium and incubated at 37 °C with 5% CO2 for approximately 18 h. […] The culture medium was substituted by infection medium with diluted compounds 1 hour in advance of infection. Luciferase-expressing P. berghei sporozoites (PbA-LuciGFPcon spz) were freshly obtained through the dissection of salivary glands from infected female Anopheles stephensi mosquitoes. Sporozoites were added to the cells at 1:1 ratio, i.e., 1 × 10^4 sporozoites were added per well, and then subjected to centrifugation at 1800× g for 5 min. The plate was then incubated for 46 h at 37 °C with 5% CO2, at which time Huh-7 cell confluency was indirectly assessed by the alamarBlue assay (Invitrogen, Waltham, MA, USA), as reported in the manufacturer’s protocol. Parasite load was assessed 48 h post-infection by a bioluminescence assay, as reported by the manufacturer (Biotium, Fremont, CA, USA). GraphPad Prism 8 (GraphPad Software, Inc., La Jolla, CA, USA) was used to obtain IC50 values using nonlinear regression analysis to fit the dose-response curves normalized results.

In data set [2] the test system is Huh-7 cell line. The data set can be described thus: Huh-7 cell confluency by alamarBlue assay during hepatic-stage test. Type of data set: cell-based. The procedure: Activity against the hepatic stage of P. berghei infection was assessed using the human hepatoma cell line Huh-7 (deposited at the Japanese Collection of Research Bioresources under JCRB0403). The protocol was previously comprehensively described by Prudêncio et al. and by Ploemen et al.. Briefly, cell culture medium consisted of 1640 RPMI medium supplemented with 10% v/v fetal calf serum, 1% v/v L-glutamine, 1% v/v nonessential amino acids, 1% v/v penicillin/streptomycin, and 10 mM HEPES, pH 7. Cells were seeded in 96-well plates at a density of 1 × 10^4 cells per well in 100 µL of culture medium and incubated at 37 °C with 5% CO2 for approximately 18 h. […] The culture medium was substituted by infection medium with diluted compounds 1 hour in advance of infection. Luciferase-expressing P. berghei sporozoites (PbA-LuciGFPcon spz) were freshly obtained through the dissection of salivary glands from infected female Anopheles stephensi mosquitoes. Sporozoites were added to the cells at 1:1 ratio, i.e., 1 × 10^4 sporozoites were added per well, and then subjected to centrifugation at 1800× g for 5 min. The plate was then incubated for 46 h at 37 °C with 5% CO2, at which time Huh-7 cell confluency was indirectly assessed by the alamarBlue assay (Invitrogen, Waltham, MA, USA), as reported in the manufacturer’s protocol. Parasite load was assessed 48 h post-infection by a bioluminescence assay, as reported by the manufacturer (Biotium, Fremont, CA, USA). GraphPad Prism 8 (GraphPad Software, Inc., La Jolla, CA, USA) was used to obtain IC50 values using nonlinear regression analysis to fit the dose-response curves normalized results.
Background: Resazurin is reduced to fluorescent resorufin, in cell work by metabolically active cells.

Data set [3] is described as follows: Cytotoxicity assessment in vitro (MTT assay). The note with it: human. Format: cell-based. Here is the method: (§1) HepG2 cells of human hepatocellular carcinoma (ATCC HB-8065; passage 20–25), purchased from Health Protection Agency Culture Collections (ECACC, Salisbury, UK), were cultured in Minimum Essential Medium Eagle supplemented with 10% v/v fetal bovine serum and 1% v/v L-glutamine solution (Sigma-Aldrich, St. Louis, MO, USA) at 37 °C in a humidified atmosphere containing 5% CO2. For passaging, the cells were treated with trypsin/EDTA (Sigma-Aldrich, St. Louis, MO, USA) at 37 °C and then harvested. For the cytotoxicity evaluation, the cells treated with the test substances were used, while untreated HepG2 cells served as a control group. The cells were seeded in a 96-well plate at a density of 1 × 10^4 cells per well and incubated for 24 h. All tested compounds were dissolved in DMSO to prepare 10 mM stock solutions and diluted to the desired concentration just before the cell treatment. Cytotoxicity of all studied derivatives was screened at 10 μM concentration, and all samples were measured in triplicates. Positive and negative controls were also included. Plates were incubated for 24 h in a humidified atmosphere containing 5% CO2 at 37 °C. After the incubation, a solution of thiazolyl blue tetrazolium bromide (Sigma-Aldrich, St. Louis, MO, USA) in RPMI 1640 medium without phenol red (BioTech, Prague, Czech Republic) was added and incubated for 3 h in a humidified atmosphere containing 5% CO2 at 37 °C. Afterwards, formazan crystals were dissolved in DMSO, and the absorbance of samples was recorded at 570 nm (Synergy Neo2 Multi-Mode Reader NEO2SMALPHAB; BioTek, Winooski, VT, USA).

For data set [4], the system named is HepG2 cells. In words: Cytotoxicity assessment in vitro (MTT assay). Format: cell-based. The procedure: as §1
Where [5] appears, read: Huh-7, replicate 1, unit (Table 1: µM), read-out: Antiplasmodial activity - IC50 determination, 1. measurement.
[6] abbreviates: Huh-7, replicate 2, unit (Table 1: µM), read-out: Antiplasmodial activity - IC50 determination, 2. measurement.
Where [7] appears, read: hepatic stage, Huh-7 cells, parasite load 48 h post-infection, read-out: IC50 P. berghei.

In the case of `COc1cc(C(=O)O[C@@H]2CN3Cc4c(cc5c(c4OC)OCO5)[C@@]24C=C[C@H](OC)C[C@@H]34)cc(OC)c1OC` [28n, 11-O-(3,4,5-Trimethoxybenzoyl)ambelline], in data set [1], the activity at 1 µM is 2.38%. In addition, the activity at 10 µM in data set [1] worked out at 0.82%. Also, the IC50 – broadly, the concentration at which inhibition is half-maximal – in data set [1] (Huh-7, abstract, read-out: IC50 against hepatic stage of Plasmodium infection) came out at 0.047 µM; in data set [1] (Huh-7, mean, unit (Table 1: µM), read-out: Antiplasmodial activity - Ø IC50), 0.047 µM; in data set [1] (setting [5]), 0.047 µM; in data set [1] (setting [6]), 0.047 µM; in data set [1] (setting [7]), 0.047 µM. The “INFECTION (IC50 determination)” value in data set [1] (at 0.001 µM) is recorded as 132.557; in data set [1] (at 0.01 µM), 115.469; in data set [1] (at 0.04 µM), 56.6784; in data set [1] (at 0.07 µM), 26.9184; in data set [1] (at 0.1 µM), 17.5104; in data set [1] (at 0.5 µM), 2.9184. For the same compound, the “Huh-7 cell viability” value in data set [2] is recorded as “cell viability was not affected at antiplasmodial-active concentrations”. The “CELL CONFLUENCY (IC50 determination)” value in data set [2] (human, 46 h, 0.001 µM, pH 7) is recorded as 120.661; in data set [2] (human, 46 h, 0.01 µM, pH 7) it was 126.131; in data set [2] (human, 46 h, 0.04 µM, pH 7) it was 117.957; in data set [2] (human, 46 h, 0.07 µM, pH 7), 115.634; in data set [2] (human, 46 h, 0.1 µM, pH 7), 118.616; in data set [2] (human, 46 h, 0.5 µM, pH 7), 106.144. The “CELL CONFLUENCY Ø screening” value stood at 69.5 in data set [2] (human, 46 h, 1 µM, pH 7) and 68.02 in data set [2] (human, 46 h, 10 µM, pH 7). Besides, in data set [3], the viability (in general, a per cent measure of how many cells are alive, often set against a control) at 24 h, 10 µM was 52 ± 2%. Moreover, the “1. screening of cytotoxic potential, HepG2 cell line” value (“1. screening of cytotoxic potential” below) in data set [4] (human, 24 h, 10 µM) amounted to 52.2. Besides, the “2. screening of cytotoxic potential, HepG2 cell line” value (shortened to “2. screening of cytotoxic potential”) in data set [4] (human, 24 h, 10 µM) turned out to be 49.89. The “3. screening of cytotoxic potential, HepG2 cell line” value (“3. screening of cytotoxic potential” for short) in data set [4] (human, 24 h, 10 µM) worked out at 54.09. The “Ø screening, HepG2 (sheet Graphs)” value in data set [4] (human, 24 h, 10 µM) came to 52.06.

Take `COc1ccc(C(=O)O[C@@H]2CN3Cc4c(cc5c(c4OC)OCO5)[C@@]24C=C[C@H](OC)C[C@@H]34)cc1` [28k, 11-O-(4-Methoxybenzoyl)ambelline]: the activity at 1 µM in data set [1] was 19.9%. In data set [1], the activity at 10 µM turned out to be 0.872%. Besides, the results for the IC50 in data set [1] (setting [5]), in data set [1] (setting [6]) and in data set [1] (setting [7]) were 0.446 µM, 0.456 µM and 0.451 ± 0.007 µM, respectively. The “CELL CONFLUENCY Ø screening” value in data set [2] (at 1 μM, DMSO = 100, in % (unit assumed)) turned out to be 107.6; in data set [2] (at 10 μM, DMSO = 100, in % (unit assumed)), 76.48. Further, the viability at 24 h, 10 µM in data set [3] (c = 10 µM, 24 h, MTT, read-out: HepG2 % of cell viability compared to non-treated control (100%)) stood at 88 ± 2%. In data set [4] (c = 10 μM, DMSO = 100, in %), the “Ø screening, HepG2 (sheet Graphs)” value came to 87.88. For the same compound, the “1. screening of cytotoxic potential” value in data set [4] (c = 10 μM, replicate 1, in %) is on record as 88.02. The “2. screening of cytotoxic potential” value in data set [4] (c = 10 μM, replicate 2, in %) was determined as 89.64. Moreover, the “3. screening of cytotoxic potential” value in data set [4] (c = 10 μM, replicate 3, in %) was determined as 85.98.

For `COc1ccccc1C(=O)O[C@@H]1CN2Cc3c(cc4c(c3OC)OCO4)[C@@]13C=C[C@H](OC)C[C@@H]23` [28i, 11-O-(2-Methoxybenzoyl)ambelline], in data set [1], the activity at 1 µM came out at 60.6% and the activity at 10 µM came out at 1.65%. For the same compound, in data set [1] (setting [5]), the IC50 worked out at 1.53 µM. In addition, in data set [1] (setting [6]), the IC50 came to 2.98 µM. Moreover, in data set [1] (Huh-7, replicate 3, unit (Table 1: µM), read-out: Antiplasmodial activity - IC50 determination, 3. measurement), the IC50 came to 2.7 µM. The IC50 in data set [1] (setting [7]) came out at 2.4 ± 0.77 µM. Further, the “CELL CONFLUENCY Ø screening” value in data set [2] (human, 46 h, 1 µM, pH 7) is given as 140.5. Moreover, the “CELL CONFLUENCY Ø screening” value in data set [2] (human, 46 h, 10 µM, pH 7) is 135.7. For the same compound, the viability at 24 h, 10 µM in data set [3] was found to be 86 ± 2%. Besides, in data set [4] (human, 24 h, 10 µM), the “1. screening of cytotoxic potential” value was determined as 85.49; the “2. screening of cytotoxic potential” value came to 83.85; the “3. screening of cytotoxic potential” value is 87.77; the “Ø screening, HepG2 (sheet Graphs)” value is 85.7.

On to `COc1ccc(C(=O)O[C@@H]2CN3Cc4c(cc5c(c4OC)OCO5)[C@@]24C=C[C@H](OC)C[C@@H]34)cc1OC` [28l, 11-O-(3,4-Dimethoxybenzoyl)ambelline], for which, in data set [1], the activity at 1 µM was found to be 1.65% and the activity at 10 µM was 0.301%. Besides, in data set [1] (setting [5]), the IC50 was 0.16 µM. In addition, in data set [1] (setting [6]), the IC50 was determined as 0.135 µM. Further, the IC50 in data set [1] (setting [7]) came to 0.147 ± 0.018 µM. Moreover, the “CELL CONFLUENCY Ø screening” value in data set [2] (human, 46 h, 1 µM, pH 7) was determined as 85.82. Also, the “CELL CONFLUENCY Ø screening” value in data set [2] (human, 46 h, 10 µM, pH 7) came out at 70.05. In addition, in data set [3], the viability at 24 h, 10 µM was 99 ± 9%. Also, in data set [4] (human, 24 h, 10 µM), the “1. screening of cytotoxic potential” value worked out at 106.14; the “2. screening of cytotoxic potential” value amounted to 89.55; the “3. screening of cytotoxic potential” value is 102.39; the “Ø screening, HepG2 (sheet Graphs)” value is on record as 99.36.
